Laboratory results: PMC8863381 (Journal of Enzyme Inhibition and Medicinal Chemistry, 2022)
Like-named read-outs stand apart in the source and are kept apart here.

What was measured:
hCA I = hCA I (Homo sapiens, UniProt P00915); assay: stopped flow CO2 hydrase assay, hCA I; assay type: biochemical
hCA XII = hCA XII (Homo sapiens, UniProt O43570); assay: stopped flow CO2 hydrase assay, hCA XII; assay type: biochemical; details: for Selectivity ratio I/XII: KI hCA I / KI hCA XII; for Selectivity ratio II/XII: KI hCA II / KI hCA XII
hCA XII, sequence (O43570 25-354): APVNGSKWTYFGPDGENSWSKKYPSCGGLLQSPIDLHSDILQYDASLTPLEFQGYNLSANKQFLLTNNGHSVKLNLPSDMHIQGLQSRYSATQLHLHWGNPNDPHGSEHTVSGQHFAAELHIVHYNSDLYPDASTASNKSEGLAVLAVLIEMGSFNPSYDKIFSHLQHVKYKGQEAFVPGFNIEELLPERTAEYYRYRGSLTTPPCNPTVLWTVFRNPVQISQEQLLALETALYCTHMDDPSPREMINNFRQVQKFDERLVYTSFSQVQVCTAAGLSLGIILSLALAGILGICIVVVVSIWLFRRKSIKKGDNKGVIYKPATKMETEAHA

hCA II = hCA II (Homo sapiens, UniProt P00918); assay: stopped flow CO2 hydrase assay, hCA II; assay type: biochemical
hCA IX = hCA IX (Homo sapiens, UniProt Q16790); assay: biochemical; details: for Selectivity ratio I/IX: KI hCA I / KI hCA IX; for Selectivity ratio II/IX: KI hCA II / KI hCA IX
[1] = tested on: MCF-7 breast cancer cell line; assay: SRB cell viability assay, MCF-7; assay type: cell-based, human; details: for IC50: Homo sapiens, MCF7, 72 h, read-out: IC50 MCF-7; for Selectivity index MCF-7: normal HSF versus MCF-7
A549 lung cancer cells = assay: SRB cell viability assay, A549; assay type: cell-based, human; details: for IC50: Homo sapiens, A549, 72 h, read-out: IC50 A549; for Selectivity index A549: normal HSF versus A549
[2] = tested on: normal human skin fibroblast cell line HSF; assay: SRB cell viability assay, HSF normal cells; assay type: cell-based; details: 72 h, read-out: IC50 HSF
[3] = read-out: KI hCA I, 15 min preincubation, mean from 3 different assays
[4] = log of KI in nM, compounds of this paper
[5] = read-out: KI hCA XII, 15 min preincubation, mean from 3 different assays
[6] = read-out: KI hCA II, 15 min preincubation, mean from 3 different assays
[7] = read-out: KI hCA IX, 15 min preincubation, mean from 3 different assays
[8] = KI hCA XII, 15 min preincubation, mean from 3 different assays
[9] = Log KI hCA XII (experimental), log of KI in nM, compounds of this paper
[10] = KI hCA IX, 15 min preincubation, mean from 3 different assays
[11] = log KI hCA IX (experimental), log of KI in nM, compounds of this paper

hCA I, sequence (P00915 whole entry): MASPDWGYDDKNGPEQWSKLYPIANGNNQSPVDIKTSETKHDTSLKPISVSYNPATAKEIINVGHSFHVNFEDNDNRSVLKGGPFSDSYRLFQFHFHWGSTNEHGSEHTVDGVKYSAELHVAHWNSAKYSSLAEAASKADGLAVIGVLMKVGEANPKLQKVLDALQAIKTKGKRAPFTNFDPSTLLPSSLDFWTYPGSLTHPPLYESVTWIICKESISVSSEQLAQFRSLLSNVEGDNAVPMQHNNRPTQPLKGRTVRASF

Compound | Selectivity ratio I/XII (hCA XII) | Selectivity ratio II/XII (hCA XII) | Selectivity ratio I/IX (hCA IX) | Selectivity ratio II/IX (hCA IX) | Ki (hCA I) [nM] | Ki (hCA XII; [8]) [nM] | Ki (hCA XII; [9]) [nM] | Ki (hCA II) [nM] | Ki (hCA IX; [10]) [nM] | Ki (hCA IX; [11]) [nM] | IC50 [1] [nM] | IC50 (A549 lung cancer cells) [nM] | IC50 [2] [nM] | further results
2–(2-Oxo-3–(2-(2–(4-sulfamoylphenylamino)acetyl)hydrazono)indolin-1-yl)-N-m-tolylacetamide [4d] | 1.412 | 0.076 | 14.824 | 0.797 |  |  |  |  |  |  |  |  |  | Ki (hCA I; [3]): 8510 nM; Log KI hCA XII (experimental) (hCA XII; [4]): 3.78; Ki (hCA XII; [5]): 6020 nM; Ki (hCA II; [6]): 458 nM; log KI hCA IX (experimental) (hCA IX; [4]): 2.759; Ki (hCA IX; [7]): 574 nM
NS(=O)(=O)c1ccc(NC(=O)CN2C(=O)C(=O)c3ccccc32)cc1 [2h, 2–(2,3-Dioxoindolin-1-yl)-N-(4-sulfamoylphenyl)acetamide] | 5.701 | 0.742 | 0.673 | 0.087 | 45.1 | 7.91 | 8 | 5.87 | 67 | 67 | > 100000 | > 100000 | > 100000 | cytotoxic activity against MCF-7 [1]: no cytotoxic activity; cytotoxic activity against A549 (A549 lung cancer cells): no cytotoxic activity
NS(=O)(=O)c1ccc(NN=C2C(=O)N(CC(=O)Nc3ccccc3)c3ccccc32)cc1 [3a, 2–(2-Oxo-3–(2-(4-sulfamoylphenyl)hydrazono)indolin-1-yl)-N-phenylacetamide] | 1.088 | 0.071 | 18.384 | 1.203 | 3970 | 3650 | 3650 | 260 | 216 | 216 |  |  |  | 
NS(=O)(=O)c1ccc(NN=C2C(=O)N(CC(=O)Nc3ccc(Cl)cc3)c3ccccc32)cc1 [3b, N-(4-Chlorophenyl)-2–(2-oxo-3–(2-(4-sulfamoylphenyl)hydrazono)indolin-1-yl)acetamide] | 1.881 | 0.953 | 7.252 | 3.674 | 892 | 474 | 474 | 452 | 123 | 123 |  |  |  | 
NS(=O)(=O)c1ccc(NN=C2C(=O)N(CC(=O)Nc3ccc(Br)cc3)c3ccccc32)cc1 [3c, N-(4-Bromophenyl)-2–(2-oxo-3–(2-(4-sulfamoylphenyl)hydrazono)indolin-1-yl)acetamide] | 1.245 | 0.092 | 13.392 | 0.991 | 762 | 612 | 612 | 56.4 | 56.9 | 57 | > 100000 | 5900 | > 100000 | Selectivity index A549 (A549 lung cancer cells): > 16.94
Cc1ccc(NC(=O)CN2C(=O)C(=NNc3ccc(S(N)(=O)=O)cc3)c3ccccc32)cc1 [3d, 2–(2-Oxo-3–(2-(4-sulfamoylphenyl)hydrazono)indolin-1-yl)-N-p-tolylacetamide] | 0.923 | 0.112 | 7.672 | 0.934 | 656 | 710 | 710 | 79.9 | 85.5 | 86.1 | 869 | 5120 | 1460 | Selectivity index MCF-7 [1]: 1.68; Selectivity index A549 (A549 lung cancer cells): 0.28
NS(=O)(=O)c1ccc(NCC(=O)NN=C2C(=O)N(CC(=O)Nc3ccccc3)c3ccccc32)cc1 [4a, 2–(2-Oxo-3–(2-(2–(4-sulfamoylphenylamino)acetyl)hydrazono)indolin-1-yl)-N-phenylacetamide] | 0.683 | 0.118 | 5.741 | 0.995 | 4640 | 6790 |  | 804 | 808 | 807 |  |  |  | 
NS(=O)(=O)c1ccc(NCC(=O)NN=C2C(=O)N(CC(=O)Nc3ccc(Cl)cc3)c3ccccc32)cc1 [4b, N-(4-Chlorophenyl)-2–(2-oxo-3–(2-(2–(4-sulfamoylphenylamino)acetyl)hydrazono)indolin-1-yl)acetamide] | 1.670 | 0.909 | 2.149 | 1.169 | 8430 | 5050 | 5050 | 4590 | 3920 | 3930 |  |  |  | 
NS(=O)(=O)c1ccc(NCC(=O)NN=C2C(=O)N(CC(=O)Nc3ccccc3Cl)c3ccccc32)cc1 [4f, N-(2-Chlorophenyl)-2–(2-oxo-3–(2-(2–(4-sulfamoylphenylamino)acetyl)hydrazono)indolin-1-yl)acetamide] | 5.823 | 3.937 | 0.819 | 0.554 | 4390 | 754 | 753 | 2970 | 5360 | 5360 |  |  |  | 
NS(=O)(=O)c1ccc(NCC(=O)NN=C2C(=O)N(CC(=O)Nc3ccccc3Br)c3ccccc32)cc1 [4g, N-(2-Bromophenyl)-2–(2-oxo-3–(2-(2–(4-sulfamoylphenylamino)acetyl)hydrazono)indolin-1-yl)acetamide] | 7.221 | 2.373 | 0.829 | 0.272 | 6090 | 843 | 843 | 2000 | 7340 | 7330 |  |  |  | 
COc1cccc2c1C(=O)c1c(O)c3c(c(O)c1C2=O)C[C@@](O)(C(=O)CO)C[C@@H]3O[C@H]1C[C@H](N)[C@H](O)[C@H](C)O1 [Doxorubicin, reference compound] |  |  |  |  |  |  |  |  |  |  | 630 | 190 | 220 | Selectivity index MCF-7 [1]: 0.349; Selectivity index A549 (A549 lung cancer cells): 1.157
N-(3-Bromophenyl)-2–(2-oxo-3–(2-(2–(4-sulfamoylphenylamino)acetyl)hydrazono) indolin-1-yl)acetamide [4c] | 1.029 | 0.320 | 3.596 | 1.119 |  |  |  |  |  |  |  |  |  | Ki (hCA I; [3]): 2350 nM; Log KI hCA XII (experimental) (hCA XII; [4]): 3.359; Ki (hCA XII; [5]): 2280 nM; Ki (hCA II; [6]): 732 nM; log KI hCA IX (experimental) (hCA IX; [4]): 2.816; Ki (hCA IX; [7]): 654 nM
N-(3-Methoxyphenyl)-2–(2-oxo-3–(2-(2–(4-sulfamoylphenylamino)acetyl) hydrazono)indolin-1-yl)acetamide [4e] | 6.122 | 4.416 | 2.957 | 2.133 |  |  |  |  |  |  |  |  |  | Ki (hCA I; [3]): 9320 nM; Log KI hCA XII (experimental) (hCA XII; [4]): 3.182; Ki (hCA XII; [5]): 1520 nM; Ki (hCA II; [6]): 6720 nM; log KI hCA IX (experimental) (hCA IX; [4]): 3.498; Ki (hCA IX; [7]): 3150 nM
